Experimental data published in US20260294769A1, “ASCORBIC ACID DERIVATIVES AND COSMETIC THEREOF” (SEIWA KASEI COMPANY, LIMITED, priority 2023, published 2026).
Like-named read-outs stand apart in the source and are kept apart here.

Key:
[1] = system: Normal human dermal fibroblasts (NHDF); assay: Hyaluronic acid production promoting effect (ELISA of hyaluronic acid in supernatant); type: cell-based; conditions: 10 mM or less, 48 hours, control group set to 100%, N=3
Protocol: Normal human dermal fibroblasts (NHDF) were prepared in D-MEM containing 5% (v/v) fetal bovine serum to a cell density of 2.5×10^4 cells/well, and then pre-incubated on a 96-well plate for 24 hours. After removing the medium, samples prepared in serum-free D-MEM were added to each well and cultured for 48 hours. After the culture was completed, the amount of hyaluronic acid in the supernatant was quantified by ELISA. Measurements were performed in triplicate (N=3).
The amount of hyaluronic acid produced when the sample was measured at a concentration of 10 mM or less was compared with that of the control group, and the results (% values when the control group is set to 100%) are shown in Tables 18 to 20 based on the following criteria.

[2] = Stability Test-2: odor of cream stored at 50° C.; type: physicochemical; conditions: 10 panelists
Source text: • Evaluation was made by 10 panelists according to the following criteria. • 3: Almost odorless. • 2: There is a slight strange odor. • 1: A strong odor is detected. • Based on the results of the above evaluation, the following classification was made: • ◯: Total score of 10 panelists is 25 or more • Δ: Total score of 10 panelists is 16-24 • x: The total score of 10 panelists is 15 or less
(§1) For each of the samples of Synthesis Examples 9 to 32, (a) and (b) shown in Table 12 were each heated and mixed. After cooling, (c) shown in Table 12 was added to prepare a cream with a pH of 7 or 9. […] The odor and coloration were also evaluated according to the same method and criteria as in Test Example 1. The results regarding the residual rate are shown in Tables 13 and 14, and the results regarding the odor and coloration are shown in Tables 15 and 16.

[3] = Stability Test-2: coloration of cream stored at 50° C.; type: physicochemical; conditions: 10 panelists
Source text: • Evaluation was made by 10 panelists according to the following criteria. • 3: Almost no change compared to immediately after preparation. • 2: Color changes compared to immediately after preparation. • 1: Strongly colored compared to immediately after preparation. • Based on the results of the above evaluation, the following classification was made:
as §1

[4] = Stability Test-2: residual rate in cream of pH 7 or 9 stored at 50° C.; type: physicochemical
Protocol: as §1

[5] = Stability Test-1: residual rate of 1% aqueous solutions stored at 50° C. (HPLC); type: physicochemical; conditions: water, 1% aqueous solution; for remaining at 336 h: after 2 weeks, read-out: Residual Rate; for remaining at 672 h: after 4 weeks
Protocol: For each of the samples of Synthesis Examples 1 to 6, 1% aqueous solutions were adjusted to pH 3, 5, 7, 8, and 9 with a dilute potassium hydroxide aqueous solution, and then placed in 50 mL screw tubes and sealed. […] Furthermore, the odor and coloration of the samples adjusted to pH 7 were evaluated based on the following methods and criteria, and the results are shown in Table 11.
• ⊚: 80% or more • ◯: 50% or more, less than 80% • Δ: 30% or more, less than 50% • x: Less than 30%

[6] = cream pH 7, 50° C., after 2 weeks, 20160 min
[7] = cream pH 7, 50° C., after 4 weeks, 40320 min
[8] = cream pH 9, 50° C., after 2 weeks, 20160 min
[9] = cream pH 9, 50° C., after 4 weeks, 40320 min

Odor ([2]; after 4 weeks)	Residual Rate [4, 6]	Residual Rate [4, 7]	Residual Rate [4, 8]	Residual Rate [4, 9]	Compound	Hyaluronic acid production-promoting effect [1]	Odor ([2]; after 2 weeks)	Coloration ([3]; after 2 weeks)	Coloration ([3]; after 4 weeks)	further results
Δ (Total score of 10 panelists is 16-24)	⊚ (95% or more)	⊚ (95% or more)	⊚ (95% or more)	⊚ (95% or more)	CCCC(=O)OCC(O)C1OC(=O)C2=C1OCCCCO2 (stereo not shown) [Synthesis Example 9, 6-O-butanoyl-2,3-O-(1,4-butanediyl) ascorbic acid]	++ (120%<)	◯ (Total score of 10 panelists is 25 or more)	◯ (Total score of 10 panelists is 25 or more)	◯ (Total score of 10 panelists is 25 or more)	
Δ (Total score of 10 panelists is 16-24)	⊚ (95% or more)	⊚ (95% or more)	⊚ (95% or more)	⊚ (95% or more)	CCCC(=O)OCC(O)C1OC(=O)C2=C1OCCCO2 (stereo not shown) [Synthesis Example 20, 6-O-butanoyl-2,3-O-(1,3-propanediyl) ascorbic acid]	++ (120%<)	◯ (Total score of 10 panelists is 25 or more)	◯ (Total score of 10 panelists is 25 or more)	◯ (Total score of 10 panelists is 25 or more)	
Δ (Total score of 10 panelists is 16-24)	⊚ (95% or more)	⊚ (95% or more)	⊚ (95% or more)	⊚ (95% or more)	CCCCCCCCCCCCCCCC(=O)OCC(OC(=O)CCC)C1OC(=O)C2=C1OCCCO2 (stereo not shown) [Synthesis Example 30, 5-O-butanoyl-6-O-palmitoyl-2,3-O-(1,3-propanediyl) ascorbic acid]		◯ (Total score of 10 panelists is 25 or more)	◯ (Total score of 10 panelists is 25 or more)	◯ (Total score of 10 panelists is 25 or more)	
Δ (Total score of 10 panelists is 16-24)	⊚ (95% or more)	⊚ (95% or more)	⊚ (95% or more)	⊚ (95% or more)	CC(C)CCCCCCCCCCCCCCC(=O)OCC(OC(=O)CCCCCCCCCCCCCCC(C)C)C1OC(=O)C2=C1OCCO2 (stereo not shown) [Synthesis Example 32, 5,6-O-diisostearoyl-2,3-O-(1,2-ethanediyl) ascorbic acid]		◯ (Total score of 10 panelists is 25 or more)	◯ (Total score of 10 panelists is 25 or more)	◯ (Total score of 10 panelists is 25 or more)	

Second part, the compound before the results:

Compound	Odor ([2]; after 4 weeks)	Residual Rate [4, 6]	Residual Rate [4, 7]	Residual Rate [4, 8]	Residual Rate [4, 9]	Hyaluronic acid production-promoting effect [1]	Odor ([2]; after 2 weeks)	Coloration ([3]; after 2 weeks)	Coloration ([3]; after 4 weeks)	further results
CCCCCCCCCCCCCCCC(=O)OC[C@H](O)[C@H]1OC(=O)C(OP(=O)(O)O)=C1O [Ascorbyl phosphate 3Na palmitate, reference compound]						± (<100%)				
CCCCCCCCC(CCCCCC)C(=O)OC[C@H](OC(=O)C(CCCCCC)CCCCCCCC)[C@H]1OC(=O)C(OC(=O)C(CCCCCC)CCCCCCCC)=C1OC(=O)C(CCCCCC)CCCCCCCC (stereo partly shown) [Ascorbyl tetrahexyldecanoate, reference compound]	Δ (Total score of 10 panelists is 16-24)	∘ (85% or more, less than 95%)	x (Less than 85%)	∘ (85% or more, less than 95%)	x (Less than 85%)		◯ (Total score of 10 panelists is 25 or more)	◯ (Total score of 10 panelists is 25 or more)	Δ (Total score of 10 panelists is 16-24)	
O=C1O[C@H]([C@@H](O)CO)C(OCC(O)CO)=C1OCC(O)CO (stereo partly shown) [Bisglyceryl ascorbic acid, reference compound]										remaining at 336 h ([5]; pH 3, 50° C.): ≥ 80%; remaining at 672 h ([5]; pH 3, 50° C.): ≥ 80%; remaining at 336 h ([5]; pH 5, 50° C.): ≥ 80%; remaining at 672 h ([5]; pH 5, 50° C.): ≥ 80%; remaining at 336 h ([5]; pH 7, 50° C.): < 30%; remaining at 672 h ([5]; pH 7, 50° C.): < 30%; remaining at 336 h ([5]; pH 8, 50° C.): < 30%; remaining at 672 h ([5]; pH 8, 50° C.): < 30%; remaining at 336 h ([5]; pH 9, 50° C.): < 30%; remaining at 672 h ([5]; pH 9, 50° C.): < 30%
CCCCCCCC(=O)OCC(O)C1OC(=O)C2=C1OCCCCO2 (stereo not shown) [Synthesis Example 11, 6-O-octanoyl-2,3-O-(1,4-butanediyl) ascorbic acid]	Δ (Total score of 10 panelists is 16-24)	⊚ (95% or more)	⊚ (95% or more)	⊚ (95% or more)	∘ (85% or more, less than 95%)	++ (120%<)	◯ (Total score of 10 panelists is 25 or more)	◯ (Total score of 10 panelists is 25 or more)	◯ (Total score of 10 panelists is 25 or more)	
CCCCCCCCCCCCCCCC(=O)OCC(OC(=O)CCCCCCCCCCCCCCC)C1OC(=O)C2=C1OCCCCO2 (stereo not shown) [Synthesis Example 16, 5,6-O-dipalmitoyl-2,3-O-(1,4-butanediyl) ascorbic acid]	Δ (Total score of 10 panelists is 16-24)	⊚ (95% or more)	⊚ (95% or more)	⊚ (95% or more)	⊚ (95% or more)	++ (120%<)	◯ (Total score of 10 panelists is 25 or more)	◯ (Total score of 10 panelists is 25 or more)	◯ (Total score of 10 panelists is 25 or more)	
CC(C)CCCCCCCCCCCCCCC(=O)OC[C@H](OC(=O)CCCCCCCCCCCCCCC(C)C)[C@H]1OC(=O)C2=C1OCCCCO2 [Synthesis Example 18, 5,6-O-diisostearoyl-2,3-O-(1,4-butanediyl) ascorbic acid]	Δ (Total score of 10 panelists is 16-24)	⊚ (95% or more)	⊚ (95% or more)	⊚ (95% or more)	⊚ (95% or more)	++ (120%<)	◯ (Total score of 10 panelists is 25 or more)	◯ (Total score of 10 panelists is 25 or more)	◯ (Total score of 10 panelists is 25 or more)	
CCCCCCCC(=O)OC[C@H](OC(=O)CCC)[C@H]1OC(=O)C2=C1OCCCCO2 [Synthesis Example 19, 5-O-butanoyl-6-O-octanoyl-2,3-O-(1,4-butanediyl) ascorbic acid]	Δ (Total score of 10 panelists is 16-24)	⊚ (95% or more)	⊚ (95% or more)	⊚ (95% or more)	⊚ (95% or more)		◯ (Total score of 10 panelists is 25 or more)	◯ (Total score of 10 panelists is 25 or more)	◯ (Total score of 10 panelists is 25 or more)	
CC1(C)OCC(C2OC(=O)C3=C2OCCCCO3)O1 (stereo not shown) [Synthesis Example 35, 5,6-O-isopropylidene-2,3-O-(1,4-butanediyl) ascorbic acid]						++ (120%<)				
CC1(C)OCC(C2OC(=O)C3=C2OCCCO3)O1 (stereo not shown) [Synthesis Example 36, 5,6-O-isopropylidene-2,3-O-(1,3-propanediyl) ascorbic acid]						++ (120%<)				
O=C1OC(C2COC(c3ccccc3)O2)C2=C1OCCCO2 (stereo not shown) [Synthesis Example 38, 5,6-O-(phenylmethylene)-2,3-O-(1,3-propanediyl) ascorbic acid]						++ (120%<)				
